The results in this text go back to the supplement of paper PMC10307832.

Test in all cases: relative viability (nuclei count vs DMSO), 5 days (fraction); higher = more cells survive
Compound in experiment [1]: CN1CCN(CC1)C2=CC(=C(C=C2)NC3=NC=C4C(=N3)N(C5=CC=CC=C5C(=O)N4C)C)OC [XMD8-85] + C[C@]1(O)C[C@@H](c2nc(-c3ccc4ccc(-c5ccccc5)nc4c3)c3c(N)nccn32)C1 [Linsitinib] (partner 1 µM)
In outline:
(§1)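 After 5 days of treatment, lung cancer cells in 1536-well plates were fixed and stained in a single step (final 0.05% Triton X-100, 1% formaldehyde, 1 ug/ml Hoechst) and their nuclei counted on 4× images. Treatment had been applied by pin tool the day after seeding as one drug alone or as a fixed anchor-drug dose with five library-drug doses (not always all listed) in √10 steps. Relative viability is the nuclei count of treated wells divided by that of vehicle wells, and values are medians of duplicate plates.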

Compound in experiment [2]: CN1CCN(CC1)C2=CC(=C(C=C2)NC3=NC=C4C(=N3)N(C5=CC=CC=C5C(=O)N4C)C)OC [XMD8-85] + COc1cccc2cc(-c3nc([C@H]4CC[C@H](C(=O)O)CC4)n4ncnc(N)c34)[nH]c12 [OSI-027] (partner 0.5 µM)
Summed up: as §1

Compound in experiment [3]: CN1CCN(CC1)C2=CC(=C(C=C2)NC3=NC=C4C(=N3)N(C5=CC=CC=C5C(=O)N4C)C)OC [XMD8-85] + Cc1cc(Nc2cc(N3CCN(C)CC3)nc(Sc3ccc(NC(=O)C4CC4)cc3)n2)n[nH]1 [Tozasertib] (partner 0.1 µM)
Summed up:
as §1

Compound in experiment [4]: CN1CCN(CC1)C2=CC(=C(C=C2)NC3=NC=C4C(=N3)N(C5=CC=CC=C5C(=O)N4C)C)OC [XMD8-85] + CS(=O)(=O)N1CCN(Cc2cc3nc(-c4cccc5[nH]ncc45)nc(N4CCOCC4)c3s2)CC1 [Pictilisib] (partner 1 µM)
In outline:
as §1

Turning to NCI-H1651, the relative viability amounted to 0.957 in experiment [1] (first compound 0.08 µM); 0.909 in experiment [1] (first compound 0.253 µM); 0.945 in experiment [1] (first compound 0.8 µM); 1.08 in experiment [1] (first compound 2.53 µM); 0.659 in experiment [1] (first compound 8 µM); 0.752 in experiment [2] (first compound 0.08 µM). Further, the relative viability in experiment [2] (first compound 0.253 µM) amounted to 0.695; in experiment [2] (first compound 0.8 µM), 0.676; in experiment [2] (first compound 2.53 µM), 0.647; in experiment [2] (first compound 8 µM), 0.638; in experiment [3] (first compound 0.08 µM), 0.717; in experiment [3] (first compound 0.253 µM), 0.818. The relative viability was 0.68 in experiment [3] (first compound 0.8 µM); 0.436 in experiment [3] (first compound 2.53 µM); 0.307 in experiment [3] (first compound 8 µM); 0.527 in experiment [4] (first compound 0.08 µM); 0.454 in experiment [4] (first compound 0.253 µM); 0.584 in experiment [4] (first compound 0.8 µM). Besides, the relative viability in experiment [4] (first compound 2.53 µM) amounted to 0.534; in experiment [4] (first compound 8 µM), 0.44.

As to H3255, the relative viability was 0.994 in experiment [1] (first compound 0.08 µM); 0.872 in experiment [1] (first compound 0.253 µM); 0.955 in experiment [1] (first compound 0.8 µM); 0.946 in experiment [1] (first compound 2.53 µM); 0.629 in experiment [1] (first compound 8 µM); 0.599 in experiment [2] (first compound 0.08 µM). In addition, the relative viability in experiment [2] (first compound 0.253 µM) came to 0.597; in experiment [2] (first compound 0.8 µM), 0.611; in experiment [2] (first compound 2.53 µM) it was 0.603; in experiment [2] (first compound 8 µM), 0.469; in experiment [3] (first compound 0.08 µM), 0.599; in experiment [3] (first compound 0.253 µM), 0.646. Moreover, the relative viability in experiment [3] (first compound 0.8 µM) is 0.651; in experiment [3] (first compound 2.53 µM) it was 0.25; in experiment [3] (first compound 8 µM), 0.469; in experiment [4] (first compound 0.08 µM) it was 0.565; in experiment [4] (first compound 0.253 µM) it was 0.465; in experiment [4] (first compound 2.53 µM) it was 0.531. The relative viability in experiment [4] (first compound 8 µM) was 0.414.

Consider NCI-H1975, for which the relative viability turned out to be 1.01 in experiment [1] (first compound 0.08 µM); 0.908 in experiment [1] (first compound 0.253 µM); 0.981 in experiment [1] (first compound 0.8 µM); 1.03 in experiment [1] (first compound 2.53 µM); 0.498 in experiment [1] (first compound 8 µM); 0.53 in experiment [2] (first compound 0.08 µM). The relative viability in experiment [2] (first compound 0.253 µM) stood at 0.678; in experiment [2] (first compound 0.8 µM), 0.807; in experiment [2] (first compound 2.53 µM), 0.762; in experiment [2] (first compound 8 µM), 0.445; in experiment [3] (first compound 0.08 µM), 0.701; in experiment [3] (first compound 0.253 µM) it was 0.721. Also, the relative viability is 0.763 in experiment [3] (first compound 0.8 µM); 0.485 in experiment [3] (first compound 2.53 µM); 0.145 in experiment [3] (first compound 8 µM); 0.322 in experiment [4] (first compound 0.08 µM); 0.257 in experiment [4] (first compound 0.253 µM); 0.267 in experiment [4] (first compound 0.8 µM). In addition, the results for the relative viability in experiment [4] (first compound 2.53 µM) and in experiment [4] (first compound 8 µM) were 0.29 and 0.242, respectively.

NCI-H1793: the relative viability in experiment [1] (first compound 0.08 µM) was found to be 0.78; in experiment [1] (first compound 0.253 µM) it was 0.703; in experiment [1] (first compound 0.8 µM), 1.04; in experiment [1] (first compound 2.53 µM), 0.976; in experiment [1] (first compound 8 µM) it was 0.907; in experiment [2] (first compound 0.08 µM), 0.317. Further, the relative viability was 0.259 in experiment [2] (first compound 0.253 µM); 0.243 in experiment [2] (first compound 0.8 µM); 0.286 in experiment [2] (first compound 2.53 µM); 0.276 in experiment [2] (first compound 8 µM); 0.277 in experiment [3] (first compound 0.08 µM); 0.322 in experiment [3] (first compound 0.253 µM). Also, the relative viability came to 0.297 in experiment [3] (first compound 0.8 µM); 0.289 in experiment [3] (first compound 2.53 µM); 0.255 in experiment [3] (first compound 8 µM); 0.389 in experiment [4] (first compound 0.08 µM); 0.248 in experiment [4] (first compound 0.253 µM); 0.44 in experiment [4] (first compound 0.8 µM). In addition, the relative viability is 0.405 in experiment [4] (first compound 2.53 µM) and 0.38 in experiment [4] (first compound 8 µM).

On to BEN, for which the relative viability in experiment [1] (first compound 0.08 µM) was 0.692; in experiment [1] (first compound 0.253 µM) it was 0.923; in experiment [1] (first compound 0.8 µM), 0.802; in experiment [1] (first compound 2.53 µM), 0.683; in experiment [1] (first compound 8 µM), 0.584; in experiment [2] (first compound 0.08 µM) it was 0.439. For the same cell line, the relative viability was 0.344 in experiment [2] (first compound 0.253 µM); 0.274 in experiment [2] (first compound 0.8 µM); 0.264 in experiment [2] (first compound 2.53 µM); 0.307 in experiment [2] (first compound 8 µM); 0.467 in experiment [3] (first compound 0.08 µM); 0.426 in experiment [3] (first compound 0.8 µM). Moreover, the relative viability in experiment [3] (first compound 2.53 µM) worked out at 0.331; in experiment [3] (first compound 8 µM), 0.457; in experiment [4] (first compound 0.08 µM) it was 0.535; in experiment [4] (first compound 0.253 µM) it was 0.547; in experiment [4] (first compound 2.53 µM) it was 0.483; in experiment [4] (first compound 8 µM), 0.38.

As for LC-2-ad, the relative viability was 0.905 in experiment [1] (first compound 0.08 µM); 0.923 in experiment [1] (first compound 0.253 µM); 0.836 in experiment [1] (first compound 0.8 µM); 0.692 in experiment [1] (first compound 2.53 µM); 0.452 in experiment [1] (first compound 8 µM); 0.745 in experiment [2] (first compound 0.08 µM). For the same cell line, the relative viability stood at 0.859 in experiment [2] (first compound 0.253 µM); 0.794 in experiment [2] (first compound 0.8 µM); 0.779 in experiment [2] (first compound 2.53 µM); 0.613 in experiment [2] (first compound 8 µM); 0.411 in experiment [3] (first compound 0.08 µM); 0.429 in experiment [3] (first compound 0.253 µM). In addition, the relative viability worked out at 0.47 in experiment [3] (first compound 0.8 µM); 0.33 in experiment [3] (first compound 2.53 µM); 0.34 in experiment [3] (first compound 8 µM); 0.433 in experiment [4] (first compound 0.08 µM); 0.497 in experiment [4] (first compound 0.253 µM); 0.543 in experiment [4] (first compound 0.8 µM). Also, the results for the relative viability in experiment [4] (first compound 2.53 µM) and in experiment [4] (first compound 8 µM) were 0.483 and 0.276, respectively.

Regarding NCI-H2085, the relative viability in experiment [1] (first compound 0.08 µM) came out at 0.585; in experiment [1] (first compound 0.253 µM), 0.943; in experiment [1] (first compound 0.8 µM) it was 0.935; in experiment [1] (first compound 2.53 µM) it was 0.885; in experiment [1] (first compound 8 µM), 0.674; in experiment [2] (first compound 0.08 µM), 0.712. For the same cell line, the relative viability in experiment [2] (first compound 0.253 µM) came to 0.969; in experiment [2] (first compound 0.8 µM), 0.697; in experiment [2] (first compound 2.53 µM), 0.64; in experiment [2] (first compound 8 µM), 0.474; in experiment [3] (first compound 0.08 µM) it was 0.745; in experiment [3] (first compound 0.253 µM) it was 0.913. Further, the relative viability in experiment [3] (first compound 0.8 µM) amounted to 0.791; in experiment [3] (first compound 2.53 µM) it was 0.644; in experiment [3] (first compound 8 µM), 0.502; in experiment [4] (first compound 0.08 µM) it was 0.378; in experiment [4] (first compound 0.253 µM), 0.427; in experiment [4] (first compound 0.8 µM) it was 0.467. Further, the relative viability in experiment [4] (first compound 2.53 µM) stood at 0.436; in experiment [4] (first compound 8 µM), 0.445.
